Measurements published in ChEMBL document CHEMBL5512609, “HDAC-targeting epigenetic modulators for cancer immunotherapy” (Eur J Med Chem, 2024).

Columns and labels:
[1] = biological target: Programmed cell death protein 1/Programmed cell death 1 ligand 1 (Homo sapiens, UniProt Q15116+Q9NZQ7); test: Inhibition of PD-1/PDL1 interaction (unknown origin) in by HTRF assay; type: protein-complex assay
[2] = biological target: T1, Protein cereblon/Protein deacetylase HDAC6 (Homo sapiens, UniProt Q9UBN7+Q96SW2); test: PROTAC activity at CRBN/HDAC6 in human MDA-MB-231 cells assessed as HDAC6 degradation incubated for 18 hrs by immunoblot analysis; type: cell-based
Target sequence in this assay (Q9UBN7 whole entry): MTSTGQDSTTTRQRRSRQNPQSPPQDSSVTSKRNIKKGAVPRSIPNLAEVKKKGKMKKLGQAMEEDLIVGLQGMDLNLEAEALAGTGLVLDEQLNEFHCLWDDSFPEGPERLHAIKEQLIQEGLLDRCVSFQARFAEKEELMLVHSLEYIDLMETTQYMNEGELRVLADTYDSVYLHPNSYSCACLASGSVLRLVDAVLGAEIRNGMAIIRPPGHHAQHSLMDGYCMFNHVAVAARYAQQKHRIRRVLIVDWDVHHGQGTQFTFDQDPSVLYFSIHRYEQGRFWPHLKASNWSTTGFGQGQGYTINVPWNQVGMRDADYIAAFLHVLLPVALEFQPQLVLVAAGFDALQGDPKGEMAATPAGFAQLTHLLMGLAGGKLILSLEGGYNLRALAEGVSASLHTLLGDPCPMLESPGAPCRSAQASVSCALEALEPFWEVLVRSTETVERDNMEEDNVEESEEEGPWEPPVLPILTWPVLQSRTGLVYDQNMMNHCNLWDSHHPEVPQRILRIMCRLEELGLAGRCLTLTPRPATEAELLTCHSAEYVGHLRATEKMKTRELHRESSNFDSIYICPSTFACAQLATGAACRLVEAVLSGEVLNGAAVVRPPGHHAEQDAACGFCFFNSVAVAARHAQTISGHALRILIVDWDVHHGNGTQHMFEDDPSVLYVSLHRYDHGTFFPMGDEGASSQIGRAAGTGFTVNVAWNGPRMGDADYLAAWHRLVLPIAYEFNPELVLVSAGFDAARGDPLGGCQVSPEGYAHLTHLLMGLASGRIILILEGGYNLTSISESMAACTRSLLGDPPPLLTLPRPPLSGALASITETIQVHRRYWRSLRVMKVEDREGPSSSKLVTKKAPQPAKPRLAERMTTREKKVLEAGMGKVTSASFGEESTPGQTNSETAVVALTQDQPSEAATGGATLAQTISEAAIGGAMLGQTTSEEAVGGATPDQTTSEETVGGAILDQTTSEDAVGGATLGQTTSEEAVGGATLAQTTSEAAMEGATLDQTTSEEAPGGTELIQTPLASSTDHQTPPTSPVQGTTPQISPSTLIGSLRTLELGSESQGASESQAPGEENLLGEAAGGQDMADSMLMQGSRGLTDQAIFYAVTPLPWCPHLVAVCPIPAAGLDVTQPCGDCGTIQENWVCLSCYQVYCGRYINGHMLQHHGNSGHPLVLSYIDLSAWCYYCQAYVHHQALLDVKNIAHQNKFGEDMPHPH
Target sequence in this assay (Q96SW2 whole entry): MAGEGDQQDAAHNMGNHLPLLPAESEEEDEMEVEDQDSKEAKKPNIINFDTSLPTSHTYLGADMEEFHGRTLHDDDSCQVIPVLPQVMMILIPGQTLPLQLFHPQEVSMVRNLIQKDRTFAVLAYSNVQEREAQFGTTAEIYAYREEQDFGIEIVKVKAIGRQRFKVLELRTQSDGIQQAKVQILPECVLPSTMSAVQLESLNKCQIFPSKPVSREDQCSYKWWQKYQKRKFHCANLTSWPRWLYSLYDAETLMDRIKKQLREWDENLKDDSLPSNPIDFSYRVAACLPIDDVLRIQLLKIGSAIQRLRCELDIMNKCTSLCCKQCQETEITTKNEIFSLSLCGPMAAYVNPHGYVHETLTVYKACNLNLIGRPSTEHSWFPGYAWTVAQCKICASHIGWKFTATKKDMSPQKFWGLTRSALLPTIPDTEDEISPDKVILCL

[3] = biological target: T1, Protein cereblon/Protein deacetylase HDAC6; test: PROTAC activity at CRBN/HDAC6 in human HUVEC cells assessed as HDAC6 degradation incubated for 18 hrs by immunoblot analysis; type: cell-based
Target sequence in this assay (Q9UBN7 whole entry): as the sequence (Q9UBN7 whole entry) above
Target sequence in this assay (Q96SW2 whole entry): as the sequence (Q96SW2 whole entry) above

[4] = biological target: T1, Protein cereblon/Protein deacetylase HDAC6; test: PROTAC activity at CRBN/HDAC6 in human JeKo-1 cells assessed as HDAC6 degradation incubated for 18 hrs by immunoblot analysis; type: cell-based
Target sequence in this assay (Q9UBN7 whole entry): as the sequence (Q9UBN7 whole entry) above
Target sequence in this assay (Q96SW2 whole entry): as the sequence (Q96SW2 whole entry) above

[5] = biological target: T1, Protein cereblon/Protein deacetylase HDAC6; test: PROTAC activity at CRBN/HDAC6 in human MM1.S cells assessed as HDAC6 degradation incubated for 18 hrs by immunoblot analysis; type: cell-based
Target sequence in this assay (Q9UBN7 whole entry): as the sequence (Q9UBN7 whole entry) above
Target sequence in this assay (Q96SW2 whole entry): as the sequence (Q96SW2 whole entry) above

[6] = biological target: T1, Protein cereblon/Protein deacetylase HDAC6; test: PROTAC activity at CRBN/HDAC6 in human MINO cells assessed as HDAC6 degradation incubated for 18 hrs by immunoblot analysis; type: cell-based
Target sequence in this assay (Q9UBN7 whole entry): as the sequence (Q9UBN7 whole entry) above
Target sequence in this assay (Q96SW2 whole entry): as the sequence (Q96SW2 whole entry) above

[7] = biological target: T1, Protein cereblon/Protein deacetylase HDAC6; test: PROTAC activity at CRBN/HDAC6 in human MM1.S cells assessed as HDAC6 degradation by measuring maximum efficacy incubated for 18 hrs by immunoblot analysis relative to control; type: cell-based
Target sequence in this assay (Q96SW2 whole entry, looked up): as the sequence (Q96SW2 whole entry) above
Target sequence in this assay (Q9UBN7 whole entry, looked up): as the sequence (Q9UBN7 whole entry) above

[8] = biological target: T1, Protein cereblon/Protein deacetylase HDAC6; test: PROTAC activity at CRBN/HDAC6 in human MM1.S cells assessed as induction of degradation of HDAC6 by measuring maximum efficacy relative to control; type: cell-based
Target sequence in this assay (Q96SW2 whole entry, looked up): as the sequence (Q96SW2 whole entry) above
Target sequence in this assay (Q9UBN7 whole entry, looked up): as the sequence (Q9UBN7 whole entry) above

[9] = biological target: T1, Protein cereblon/Protein deacetylase HDAC6; test: PROTAC activity at CRBN/HDAC6 in human MM1.S cells assessed as induction of degradation of HDAC6; type: cell-based
Target sequence in this assay (Q9UBN7 whole entry): as above
Target sequence in this assay (Q96SW2 whole entry): as the sequence (Q96SW2 whole entry) above

[10] = Inhibition of LSD1/HDAC3/CoREST complex (unknown origin) using Boc-(Ac)Lys-AMC as substrate measured after 20 mins by fluorescence based analysis; design: species or system Homo sapiens
[11] = biological target: T2, von Hippel-Lindau disease tumor suppressor/Histone deacetylase 2 (Homo sapiens, UniProt Q92769+P40337); test: PROTAC activity at VHL/HDAC2 in human HCT-116 cells assessed as degradation of HDAC2 incubated for 24 hrs by Western blot analysis; type: cell-based
[12] = Inhibition of LSD1/HDAC2/CoREST complex (unknown origin) using Boc-(Ac)Lys-AMC as substrate measured after 20 mins by fluorescence based analysis; design: species or system Homo sapiens
[13] = biological target: T3, von Hippel-Lindau disease tumor suppressor/Histone deacetylase 3 (Homo sapiens, UniProt O15379+P40337); test: PROTAC activity at VHL/HDAC3 in human HCT-116 cells assessed as degradation of HDAC3 incubated for 24 hrs by Western blot analysis; type: cell-based
[14] = Inhibition of LSD1/HDAC1/CoREST complex (unknown origin) using Boc-(Ac)Lys-AMC as substrate measured after 20 mins by fluorescence based analysis; design: species or system Homo sapiens
[15] = biological target: T4, von Hippel-Lindau disease tumor suppressor/Histone deacetylase 1 (Homo sapiens, UniProt Q13547+P40337); test: PROTAC activity at VHL/HDAC1 in human HCT-116 cells assessed as degradation of HDAC1 incubated for 24 hrs by Western blot analysis; type: cell-based
[16] = biological target: Protein cereblon/Histone deacetylase 8 (Homo sapiens, UniProt Q9BY41+Q96SW2); test: PROTAC activity at CRBN/HDAC8 in human Jurkat T cells assessed as induction of degradation of HDAC8 by Western blot analysis; type: cell-based
[17] = biological target: T2, von Hippel-Lindau disease tumor suppressor/Histone deacetylase 2; test: PROTAC activity at VHL/HDAC2 in human HCT-116 cells assessed as degradation of HDAC2 by measuring maximum efficacy incubated for 24 hrs by immunoblot analysis relative to control; type: cell-based
[18] = biological target: T4, von Hippel-Lindau disease tumor suppressor/Histone deacetylase 1; test: PROTAC activity at VHL/HDAC1 in human HCT-116 cells assessed as degradation of HDAC1 incubated for 24 hrs by immunoblot analysis; type: cell-based
[19] = biological target: T4, von Hippel-Lindau disease tumor suppressor/Histone deacetylase 1; test: PROTAC activity at VHL/HDAC1 in human HCT-116 cells assessed as degradation of HDAC1 by measuring maximum efficacy incubated for 24 hrs by immunoblot analysis relative to control; type: cell-based
[20] = biological target: T1, Protein cereblon/Protein deacetylase HDAC6; test: PROTAC activity at CRBN/HDAC6 in human HL-60 cells assessed as HDAC6 degradation; type: cell-based
[21] = biological target: T1, Protein cereblon/Protein deacetylase HDAC6; test: PROTAC activity at CRBN/HDAC6 in human HL-60 cells assessed as HDAC6 degradation by measuring maximum efficacy relative to control; type: cell-based
Target sequence in this assay (Q96SW2 whole entry, looked up): as the sequence (Q96SW2 whole entry) above
Target sequence in this assay (Q9UBN7 whole entry, looked up): as the sequence (Q9UBN7 whole entry) above

[22] = biological target: T1, Protein cereblon/Protein deacetylase HDAC6; test: PROTAC activity at CRBN/HDAC6 in human MM1.S cells assessed as HDAC6 degradation; type: cell-based
[23] = test system: MDA-MB-468; test: Antiproliferative activity against human MDA-MB-468 cells; type: functional, cell-based
[24] = biological target: T3, von Hippel-Lindau disease tumor suppressor/Histone deacetylase 3; test: Protac activity at VHL/HDAC3 in human MDA-MB-468 cells assessed as HDAC3 degradation measured after 14 hrs by Western blot analysis; type: cell-based

Chain of Programmed cell death protein 1/Programmed cell death 1 ligand 1 (Q15116 whole entry): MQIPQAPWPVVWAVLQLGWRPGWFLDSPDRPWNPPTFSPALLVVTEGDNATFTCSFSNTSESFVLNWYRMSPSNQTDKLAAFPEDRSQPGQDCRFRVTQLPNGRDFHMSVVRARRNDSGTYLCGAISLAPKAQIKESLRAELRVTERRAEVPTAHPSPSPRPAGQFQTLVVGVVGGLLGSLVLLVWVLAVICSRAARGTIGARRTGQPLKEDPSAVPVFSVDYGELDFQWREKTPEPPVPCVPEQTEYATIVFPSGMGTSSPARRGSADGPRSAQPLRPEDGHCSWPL
Chain of Programmed cell death protein 1/Programmed cell death 1 ligand 1 (Q9NZQ7 whole entry): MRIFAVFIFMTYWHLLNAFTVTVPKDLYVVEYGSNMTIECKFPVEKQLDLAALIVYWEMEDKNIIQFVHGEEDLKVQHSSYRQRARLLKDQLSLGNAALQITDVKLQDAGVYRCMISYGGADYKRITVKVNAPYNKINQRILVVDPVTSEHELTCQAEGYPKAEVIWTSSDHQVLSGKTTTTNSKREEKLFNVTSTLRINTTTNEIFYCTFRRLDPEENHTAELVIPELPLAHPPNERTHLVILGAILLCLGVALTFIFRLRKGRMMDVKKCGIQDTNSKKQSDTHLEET

For `Cc1c(COc2ccc(CNCCC(=O)NO)c(OCc3cccc(C#N)c3)c2)cccc1-c1ccccc1`, which IC50 [1] is on record?
The IC50 was 82 nM.

Which IC50 [1] does the source give for `COc1cc(OCc2cccc(-c3ccccc3)c2C)cc(OC)c1CNCCCCCCC(=O)NO` here?
The IC50 was 85 nM.

With `Cc1c(COc2ccc(CNCCCCCC(=O)NO)c(F)c2)cccc1-c1ccccc1` as the molecule, how does the IC50 [1] read?
The IC50 was 62 nM.

Which DC50 [2] does the source give for `CCCCN(Cc1ccc(C(=O)NO)cc1)C(=O)Nc1ccc(OCCCCCCCn2cc(CCCCCNc3cccc4c3C(=O)N(C3CCC(=O)NC3=O)C4=O)nn2)cc1` (stereo not drawn) here?
The DC50 was 3.2 nM.

What about the DC50 [3] of the same molecule?
The DC50 was 3.2 nM.

And the DC50 [4]?
The DC50 was 3.2 nM.

And the DC50 [5]?
Its DC50 is 1.6 nM.

And the DC50 [6]?
Its DC50 is 3.2 nM.

What about the Emax [7] of the same molecule?
Its Emax is 86%.

With `COc1cc(OCc2cccc(-c3ccccc3)c2C)cc(OC)c1CN(C)CCCC(=O)NO` as the molecule, how does the IC50 [1] read?
The IC50 was 104 nM.

Which Emax [8] does the source give for `CCCCN(Cc1ccc(C(=O)NO)cc1)C(=O)Nc1ccc(NC(=O)CCCCCc2cn(CCOCCNc3cccc4c3C(=O)N(C3CCC(=O)NC3=O)C4=O)nn2)cc1` (stereo not drawn) here?
Its Emax is 86%.

What about the DC50 [9] of the same molecule?
The DC50 was 1.6 nM.

Which IC50 [10] does the source give for `Cc1ncsc1-c1ccc(CNC(=O)[C@H]2C[C@H](O)CN2C(=O)[C@H](NC(=O)CCCCCCCCCCC(=O)Nc2ccc(C(=O)Nc3ccccc3N)cc2)C(C)(C)C)cc1` here?
Its IC50 is 16800 nM.

What about the DC50 [11] of the same molecule?
The DC50 was 1000 nM.

What about the IC50 [12] of the same molecule?
Its IC50 is 16800 nM.

What about the DC50 [13] of the same molecule?
The DC50 was 1000 nM.

What about the IC50 [14] of the same molecule?
The IC50 was 16800 nM.

And the DC50 [15]?
Its DC50 is 1000 nM.

Which DC50 [16] does the source give for `COc1cc(C(=O)NO)ccc1NCc1ccc(OCc2cn(CCCCCC(=O)Nc3cccc4c3C(=O)N(C3CCC(=O)NC3=O)C4=O)nn2)cc1` (stereo not drawn) here?
The DC50 was 250 nM.

With `Cc1c(COc2ccc(CNCCC(=O)NO)c(F)c2)cccc1-c1ccccc1` as the molecule, how does the IC50 [1] read?
Its IC50 is 120 nM.

For `Cc1ncsc1-c1ccc(CNC(=O)[C@H]2C[C@H](O)CN2C(=O)[C@H](NC(=O)CCn2cc(CCCOC(=O)NCc3ccc(C(=O)Nc4ccc(F)cc4N)cc3)nn2)C(C)(C)C)cc1`, which Emax [17] is on record?
Its Emax is 62%.

And the DC50 [18]?
Its DC50 is 2840 nM.

And the Emax [19]?
Its Emax is 62%.

What does the source list for `Cc1nc2cc(NC(=O)CCCCCCCNC(=O)COc3cccc4c3C(=O)N(C3CCC(=O)NC3=O)C4=O)ccc2n1Cc1ccc(C(=O)NO)cc1F` (stereo not drawn)?
DC50 [20]: 19.4 nM; Emax [21]: 92.2%; DC50 [22]: 3.8 nM

For `CCCNNC(=O)c1ccc(-c2ccc(NC(=O)CCCCCCC(=O)N[C@H](C(=O)N3C[C@H](O)C[C@H]3C(=O)N[C@H](C)c3ccc(-c4scnc4C)cc3)C(C)(C)C)cc2)cc1`, which IC50 [23] is on record?
Its IC50 is 52 nM.

What about the DC50 [24] of the same molecule?
Its DC50 is 42 nM.
